Reference: the supplement of paper PMC10307832

Legend:
Assay in all cases: relative viability (nuclei count vs DMSO), 5 days (fraction); higher = more cells survive
[1] = compound: Nc1nc2[nH]cc(CCc3ccc(C(=O)N[C@@H](CCC(=O)O)C(=O)O)cc3)c2c(=O)[nH]1 [Pemetrexed] + Nc1ncn([C@H]2C[C@H](O)[C@@H](CO)O2)c(=O)n1 [Decitabine] (partner 2 µM)
In short: (§1)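 Nuclei were stained with Hoechst during a one-step fixation (final 0.05% Triton X-100, 1% formaldehyde, 1 ug/ml Hoechst) carried out 5 days after dosing, then counted on 4× images. The cells, lung cancer lines in 1536-well plates, had been dosed by pin tool the day after seeding with one drug alone or a fixed anchor-drug dose plus five library-drug doses (not always all listed) in √10 steps. Relative viability is the nuclei count in treated wells divided by that in vehicle wells, and each value is the median of duplicate plates.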

[2] = compound: Nc1nc2[nH]cc(CCc3ccc(C(=O)N[C@@H](CCC(=O)O)C(=O)O)cc3)c2c(=O)[nH]1 [Pemetrexed] + C[C@@H](Oc1cc(-c2cnn(C3CCNCC3)c2)cnc1N)c1c(Cl)ccc(F)c1Cl [Crizotinib] (partner 1 µM)
In short: as §1

[3] = compound: CC[C@H](Nc1ncnc2[nH]cnc12)c1nc2cccc(F)c2c(=O)n1-c1ccccc1 [Idelalisib] + COc1cc2c(Oc3ccc(NC(=O)C4(C(=O)Nc5ccc(F)cc5)CC4)cc3F)ccnc2cc1OCCCN1CCOCC1 [Foretinib] (partner 0.25 µM)
In short: as §1

[4] = compound: CC[C@H](Nc1ncnc2[nH]cnc12)c1nc2cccc(F)c2c(=O)n1-c1ccccc1 [Idelalisib] + CC1(C)CCC(c2ccc(Cl)cc2)=C(CN2CCN(c3ccc(C(=O)NS(=O)(=O)c4ccc(N[C@H](CCN5CCOCC5)CSc5ccccc5)c(S(=O)(=O)C(F)(F)F)c4)cc3)CC2)C1 [Navitoclax] (partner 0.5 µM)
In short: as §1

Cell Line	relative viability ([1]; first compound 0.002 µM)	relative viability ([1]; first compound 0.006325 µM)	relative viability ([1]; first compound 0.02 µM)	relative viability ([1]; first compound 0.06325 µM)	relative viability ([1]; first compound 0.2 µM)	relative viability ([2]; first compound 0.002 µM)	relative viability ([2]; first compound 0.006325 µM)	relative viability ([2]; first compound 0.02 µM)	relative viability ([2]; first compound 0.06325 µM)	relative viability ([2]; first compound 0.2 µM)	relative viability ([3]; first compound 0.04 µM)	relative viability ([3]; first compound 0.1265 µM)	relative viability ([3]; first compound 0.4 µM)	relative viability ([3]; first compound 1.265 µM)	relative viability ([3]; first compound 4 µM)	relative viability ([4]; first compound 0.04 µM)	relative viability ([4]; first compound 0.1265 µM)	relative viability ([4]; first compound 0.4 µM)	relative viability ([4]; first compound 1.265 µM)	relative viability ([4]; first compound 4 µM)
NCI-H2347	0.604	0.594	0.657	0.619	0.49	0.689	0.616	0.694	0.577	0.477	0.845	0.701	0.818	1.12	0.664	0.89	0.667	0.737	0.767	0.618
HARA	0.486	0.457	0.659	0.437	0.234	1.27	1.02	1.03	0.98	0.216	1.24	0.934	0.776	1.04	0.746	1.2	1.11	1.17	1.16	1.09
NCI-H2085	0.584	0.513	0.53	0.527	0.642	0.96	0.869	0.752	0.896	0.924	0.971	0.913	0.688	0.777	0.556	1.23	1.16	0.951	0.938	0.764
NCI-H727	0.922	0.796	0.835	0.792	0.865	0.56	0.782	0.877	0.986	0.732	1.1	0.968	0.629	0.92	0.691	0.454	0.57	0.416	0.548	0.354
NCI-H1993	0.619	0.661	0.622	0.576	0.461	0.877	0.878	0.894	0.879	0.982	0.967	0.843	0.649	0.837	0.737	0.844	0.971	0.762	0.912	0.75
A549	0.234	0.213	0.194	0.346	0.281	0.672	0.653	0.971	0.761	0.78	1.18	1.03	0.917	1	1.01	1.5	1.23	1.22	1.33	1.02
EMC-BAC-2	0.965	0.882	1	0.971	0.64	0.76	0.639	0.831	0.803	0.741	0.972	0.988	0.963	0.868	0.963	1.13	1.2	1.12	1.21	1.06
NCI-H2087	0.268	0.237	0.332	0.238	0.262	0.945	0.818	0.912	0.85	0.786	1.28	1.04	0.842	0.908	0.579	0.885	0.938	0.98	1.03	0.823
NCI-H441	0.2	0.308	0.244	0.232	0.215	0.608	0.777	0.865	0.567	0.396	1.15	1.09	1.05	1.11	1.2	0.556	0.67		0.467	0.574
LXF-289	0.363	0.393	0.38	0.403	0.404	0.808	0.832	0.841	0.843	0.79	0.946	0.979	0.928	1.14	0.951	0.961	0.948	0.912	1.02	0.97
PC-3 [JPC-3]	0.765	0.845	0.956	0.837	0.857	0.935	0.985	0.926	1.11	0.935	1.01	0.961	1.01	1.06	0.957	0.912	0.892	0.795	0.668	0.679
HCC-366	0.331	0.387	0.346	0.329	0.211	0.49	0.404	0.701	0.586	0.476	0.947	0.867	0.889	0.971	0.938	1.11	1.11	1.01	1.01	0.97
NCI-H1651	0.525	0.593	0.631	0.404	0.653	0.879	0.792	0.92	0.864	0.851	0.761	0.799	0.702	0.735	0.561	0.73	1.09	1.01	1.07	0.792
NCI-H1355	0.33	0.354	0.336	0.332	0.355	0.933	0.964	1.13	1.06	1.07	0.992	0.946	0.907	0.868	0.823	0.982	0.947	0.701	0.774	0.667
LC-2-ad	0.807	0.771	0.779	0.755	0.316	0.425	0.473	0.457	0.263	0.29	0.978	0.857	0.733	0.943	0.85	0.479	0.4	0.395	0.417	0.306
